Test results reported in ChEMBL document CHEMBL1201862, “PubChem BioAssay data set” (2004).
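Tested at 5 concentrations; 48 h exposure; 96-well plates; endpoints linearly interpolated, else capped at highest concentration. Abbreviation: GI50, concentration required for 50% inhibition of growth.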 Activity calls are given as the source filed them. Rule as the data show it: active = GI50 up to about 1.1 µM and inactive = higher.

Key:
Experiment in all cases: NCI-60 cell line screen, 48 h
M19-MEL = system: M19-MEL
DMS-273 = system: DMS-273
HOP-18 = system: HOP-18
XF498 = system: XF498
DLD-1 = system: DLD-1
KM-20L2 = system: KM-20L2
LXFL 529 = system: LXFL 529
BT-549 = system: BT-549

With `O=C(/C=C/c1ccccc1)Oc1cccc2cccnc12` the GI50 (M19-MEL) was 13.2 µM (inactive), the GI50 (DMS-273) was 23 µM (inactive) and the GI50 (HOP-18) was 25.8 µM (inactive). For the same compound, the GI50 (XF498) was 11.3 µM (inactive), the GI50 (DLD-1) was 4.37 µM (inactive) and the GI50 (KM-20L2) was 2.2 µM (inactive). The GI50 (LXFL 529) was 4.06 µM (inactive).
`CCCCNc1nc(SC)nc2[nH]cnc12` was tested, and the GI50 (BT-549) was > 100 µM (inactive).
In the case of `N[C@H]1CCN(c2c(F)cc3c(=O)c(C(=O)O)cn4c3c2Oc2cc3c(ccc5ccccc53)cc2-4)C1`, the GI50 (BT-549) is reported as 6.46 µM (inactive).
In the case of `CCN(CC)C(=S)SC1CCOP(=O)(N(CCCl)CCCl)N1C` (stereo not drawn), the GI50 (M19-MEL) is reported as 0.212 µM (active), the GI50 (DMS-273) is reported as 0.214 µM (active) and the GI50 (HOP-18) is reported as > 100 µM (inactive). For the same compound, the GI50 (DLD-1) was 0.126 µM (active), the GI50 (BT-549) was > 100 µM (inactive) and the GI50 (KM-20L2) was 38.7 µM (inactive). For the same compound, the GI50 (LXFL 529) was 0.0372 µM (active).
For `Cc1cc(NC(=O)NC(=O)c2ccccc2NC(=O)C(C)N)ccc1Oc1ncc(Br)cn1` (stereo not drawn), the GI50 (M19-MEL) was 0.292 µM (active), the GI50 (DMS-273) was 0.046 µM (active) and the GI50 (DLD-1) was 0.331 µM (active). The GI50 (BT-549) was 26.8 µM (inactive), the GI50 (KM-20L2) was 0.0946 µM (active) and the GI50 (LXFL 529) was 0.396 µM (active).
In the case of `CNS(=O)(=O)NN(C)S(=O)(=O)c1ccccc1`, the GI50 (M19-MEL) is reported as > 100 µM (inactive), the GI50 (DMS-273) is reported as > 100 µM (inactive) and the GI50 (DLD-1) is reported as > 100 µM (inactive). The GI50 (KM-20L2) was > 100 µM (inactive) and the GI50 (LXFL 529) was > 100 µM (inactive).
With `C=C1C[C@H](O)[C@H](Br)C(C)(C)C12CCC(C)(Cl)C(Br)C2` (stereo partly drawn) the GI50 (BT-549) was 7.53 µM (inactive).
In the case of `CCOC(=O)c1nc2ccccc2nc1Oc1ccc(C(=O)OC)cc1`, the GI50 (BT-549) is reported as > 100 µM (inactive).
In the case of `C#CCn1c(=O)c(C)cn(/C(=C/C(=O)OCC)C(=O)OCC)c1=O`, the GI50 (BT-549) is reported as 8.11 µM (inactive).
For `COc1cc(/C=C2\N=C(c3ccccc3)N(c3nc4ccc(Sc5ccccc5)cc4[nH]3)C2=O)ccc1O`, the GI50 (BT-549) was 20 µM (inactive).
`CN1CC[C@]23c4c5ccc(O)c4O[C@H]2C(O)CC[C@@]3(O)[C@H]1C5` (stereo partly drawn) was tested, and the GI50 (BT-549) was > 100 µM (inactive).
For `CCOC(=O)C(Cc1ccc(N(CCCl)CCCl)cc1)NC(=O)CCCN1C(=O)CN=C(c2ccccc2)c2cc(Cl)ccc21` (stereo not drawn), the GI50 (BT-549) was 41.9 µM (inactive).
`O=C1c2cccnc2C(=O)c2c1nc1ccccc1c2-c1cncc(-c2c3c(nc4ccccc24)C(=O)c2cccnc2C3=O)c1` was tested, and the GI50 (BT-549) was 0.502 µM (active).
For `Cc1ccc(S(=O)(=O)NC(=O)NC(C(=O)O)C(C)C)cc1` (stereo not drawn), the GI50 (BT-549) was > 100 µM (inactive).
In the case of `COc1ccc(N2C(=O)CC(c3c[nH]c4ccccc34)C2=O)cc1` (stereo not drawn), the GI50 (BT-549) is reported as > 100 µM (inactive).
For `CCN(CC)CCOC(=O)CCN1CC2CCC(CC2)C1`, the GI50 (BT-549) was > 100 µM (inactive).
`CCOC(=O)NC(=O)c1cn(C(CC)COC(=O)NCCCCCCNC(=O)OCC(CC)n2cc(C(=O)NC(=O)OCC)c(=O)[nH]c2=O)c(=O)[nH]c1=O` (stereo not drawn) was tested, and the GI50 (M19-MEL) was > 100 µM (inactive), the GI50 (DMS-273) was > 100 µM (inactive) and the GI50 (HOP-18) was > 100 µM (inactive). The GI50 (DLD-1) was > 10 µM (inactive), the GI50 (KM-20L2) was > 100 µM (inactive) and the GI50 (LXFL 529) was > 100 µM (inactive).
In the case of `CCOC(=O)/C=C/[C@H](O[Si](c1ccccc1)(c1ccccc1)c1ccccc1)C(C)(C)C`, the GI50 (BT-549) is reported as > 10 µM (inactive).
For `COC(=O)[C@@H]1C=C[C@@H](C#N)n2c(=O)n(-c3ccccc3)c(=O)n21`, the GI50 (BT-549) was 34 µM (inactive).
In the case of `COc1ccc2cc(CN3CCC(C4CCNCC4)CC3)ccc2c1`, the GI50 (BT-549) is reported as 8.67 µM (inactive).
For `CC(=O)OCC1OC(O/C=C(\CN=[N+]=[N-])C(C)=O)C(OC(C)=O)C(OC(C)=O)C1OC(C)=O` (stereo not drawn), the GI50 (BT-549) was 13.4 µM (inactive).
`NC1=NN(c2ccccc2)C2(c3ccncc3C(=O)O)C1C(N)=NN2c1ccccc1` (stereo not drawn) was tested, and the GI50 (BT-549) was > 100 µM (inactive).
In the case of `C[N+]12C=CC=C1C(N1CCCC1)c1scc(-c3ccc(F)cc3)c12` (stereo not drawn), the GI50 (BT-549) is reported as 4.89 µM (inactive).
For `COC(=O)C12CCC(C)(C)CC1C1=CCC3C4(C)CC(O)C(O)C(C)(C(=O)OC)C4CCC3(C)C1(CO)CC2` (stereo not drawn), the GI50 (BT-549) was 14.6 µM (inactive).
With `CCOC(=O)CCc1cc(=O)oc2cc(O)cc(O)c12` the GI50 (BT-549) was > 100 µM (inactive).
For `COc1ccc(OC)c(-c2nc3n(c2/C=C2/C(=O)Nc4ccccc42)CCS3)c1`, the GI50 (BT-549) was 81.5 µM (inactive).
For `O=C(Oc1c(Cl)cc(C2(c3cc(Cl)c(OC(=O)c4ccccc4)c(Cl)c3)CCCCC2)cc1Cl)c1ccccc1`, the GI50 (BT-549) was 14.7 µM (inactive).
For `CC(C)(C)c1cc(C(O)(C(F)(F)F)C(F)(F)F)c2c(c1)C(C(F)(F)F)(C(F)(F)F)OC(C)(C(C)(C)C)N2` (stereo not drawn), the GI50 (M19-MEL) was 3.05 µM (inactive), the GI50 (DMS-273) was 3.06 µM (inactive) and the GI50 (HOP-18) was 2.76 µM (inactive). For the same compound, the GI50 (XF498) was 1.63 µM (inactive), the GI50 (DLD-1) was 2.85 µM (inactive) and the GI50 (KM-20L2) was 3.03 µM (inactive). For the same compound, the GI50 (LXFL 529) was 2.96 µM (inactive).
`O=C1CCCCCCC2=C1C(Sc1ccccc1)CC2` (stereo not drawn) was tested, and the GI50 (M19-MEL) was 50.2 µM (inactive), the GI50 (DMS-273) was 26.2 µM (inactive) and the GI50 (HOP-18) was > 100 µM (inactive). The GI50 (KM-20L2) was 41.6 µM (inactive) and the GI50 (LXFL 529) was 35.4 µM (inactive).
`CCOc1c(OC)cc(C2c3cc4c(c(OCC)c3CC3COC(=O)C32)OCO4)cc1OC` (stereo not drawn) was tested, and the GI50 (BT-549) was 2.7 µM (inactive).
`C=C1C(=O)OC2/C=C(\CO)C3OC3C3OC3(C)CC(OC(=O)/C(=C/C)CO)C12` (stereo not drawn) was tested, and the GI50 (BT-549) was 45.4 µM (inactive).
In the case of `CCc1ccc(/C=C/C(=O)C2CN(CC)CCC2(O)/C=C/c2ccc(CC)cc2)cc1` (stereo not drawn), the GI50 (BT-549) is reported as 4.68 µM (inactive).
In the case of `CC(C)=CC[C@]12CCN[C@H]1N(S(=O)(=O)c1ccccc1)c1ccccc12`, the GI50 (BT-549) is reported as 17.1 µM (inactive).
In the case of `CCOC(=O)C(=O)Nc1ccc(Cl)cc1C`, the GI50 (M19-MEL) is reported as > 100 µM (inactive), the GI50 (DMS-273) is reported as > 100 µM (inactive) and the GI50 (HOP-18) is reported as > 100 µM (inactive). The GI50 (XF498) was > 100 µM (inactive), the GI50 (DLD-1) was > 100 µM (inactive) and the GI50 (KM-20L2) was > 100 µM (inactive). The GI50 (LXFL 529) was > 100 µM (inactive).
In the case of `CCN(CC)CC(O)c1ccc2ccc3ccccc3c2c1` (stereo not drawn), the GI50 (BT-549) is reported as 15.8 µM (inactive).
With `N=C(N)NS(=O)(=O)c1ccc(Nc2c3ccccc3nc3c(C(=O)NC(CO)(CO)CO)cccc23)cc1` the GI50 (BT-549) was 13.4 µM (inactive).
For `CC1=C(C#N)C2C(=C(N)Oc3ccccc32)C(N)=N1` (stereo not drawn), the GI50 (BT-549) was 32 µM (inactive).
`Cn1c2ccc3cc2c(=S)c2cc(ccc21)OCCOCCOCCOCCOCCO3` was tested, and the GI50 (BT-549) was > 10 µM (inactive).
For `COc1ccc(-n2c(CCC(=O)O)nc3c2C(=O)c2ccccc2C3=O)cc1`, the GI50 (BT-549) was > 100 µM (inactive).
`Cc1ccc(NC(=O)C2C(=O)N(c3ccc(C)cc3)C(=O)/C2=N\NC(N)=S)cc1` (stereo not drawn) was tested, and the GI50 (M19-MEL) was > 100 µM (inactive), the GI50 (DMS-273) was > 100 µM (inactive) and the GI50 (HOP-18) was > 100 µM (inactive). The GI50 (XF498) was > 100 µM (inactive), the GI50 (KM-20L2) was > 100 µM (inactive) and the GI50 (LXFL 529) was > 100 µM (inactive).
With `CCCCCCCCCCCCC(Br)C(=O)SCCNC(=O)CCNC(=O)[C@@H](O)C(C)(C)COP(=O)(O)OP(=O)(O)OCC1OC(n2cnc3c(N)ncnc32)C(O)C1OP(=O)(O)O` (stereo partly drawn) the GI50 (M19-MEL) was > 56.5 µM (inactive), the GI50 (DMS-273) was > 56.5 µM (inactive) and the GI50 (HOP-18) was > 56.5 µM (inactive). For the same compound, the GI50 (XF498) was > 56.5 µM (inactive), the GI50 (DLD-1) was > 56.5 µM (inactive) and the GI50 (KM-20L2) was > 56.5 µM (inactive). For the same compound, the GI50 (LXFL 529) was > 56.5 µM (inactive).
For `CC12CO[C@@](C)(CC(S(=O)(=O)c3ccccc3)C1)O2` (stereo partly drawn), the GI50 (M19-MEL) was > 100 µM (inactive), the GI50 (DMS-273) was > 100 µM (inactive) and the GI50 (HOP-18) was > 100 µM (inactive). The GI50 (DLD-1) was > 100 µM (inactive), the GI50 (KM-20L2) was > 100 µM (inactive) and the GI50 (LXFL 529) was > 100 µM (inactive).
`C=C1C(=O)C23C(CC(OC(C)=O)C1[C@@H]2OC(C)=O)C1(C)C(OC(C)=O)CCC(C)(C)C1C[C@@H]3OC(C)=O` (stereo partly drawn) was tested, and the GI50 (M19-MEL) was 1.75 µM (inactive), the GI50 (DMS-273) was 1.68 µM (inactive) and the GI50 (KM-20L2) was 1.72 µM (inactive). The GI50 (LXFL 529) was 1.35 µM (inactive).
For `Nn1c(CCCCCCCCc2nnc(COc3ccc4ccccc4c3O)n2N)nnc1COc1ccc2ccccc2c1O`, the GI50 (BT-549) was 22.1 µM (inactive).
With `Oc1cc(-c2ccc(F)cc2)nc2ncc(Cl)cc12` the GI50 (BT-549) was > 100 µM (inactive).
`COc1cc2c(cc1OCCCN1C(=O)c3cccc4cccc(c34)C1=O)N=C[C@@H]1CCCN1C2=O` was tested, and the GI50 (BT-549) was 36.6 µM (inactive).
In the case of `O=C(Nc1ncc([N+](=O)[O-])s1)c1ccccc1O` [TIZOXANIDE], the GI50 (BT-549) is reported as 19.1 µM (inactive).
